This note sets out measurements from patent US20100256041A1, “Conjugate Molecule Compounds With Enhanced Cell Uptake Activity” (priority 2004, published 2010).

“And” between values parts separate entries of the source, which are not always exact repeats. Identical values can stand only once. Like-named read-outs stand apart in the source and are kept apart here. Square brackets hold non-standard residues; d marks the D form. Bounds are passed on as bounds.

One data set concerns IGROV-1 (ovary). The data set is described as follows: MTT cell survival assay, 96 h treatment (Example 1). It counts as cell-based, human. As to conditions: IGROV-1 cells, mean of four measurements. On the procedure: (§1) Effects of a treatment with increasing concentrations of a conjugate molecule of the invention (Cisplatin-D-TAT) and an unconjugated anti-cancer drug (Cisplatin) on the survival of IGROV-1 (ovary), IGROV-1/CDDP (ovary, cisplatin-resistant cell line), MCF-7 (breast), and MRC-5 (human fibroblast) (three human tumor cell lines and one human fibroblast cell line) was determined. Cells of each cell line were plated out (200 μl final volume of RPMI 1640 supplemeted with 10% FBS) in 96 well plates (5 different concentrations for each test substance, one control experiment) 5,000 to 40,000 cells per well (depending on the doubling time for each cell line) were incubated at 37° C. for 24 h before treatment with the test substances. Each experiment was carried 4×. Cell incubation after treatment was performed for 96 h at 37° C. The effects of Cisplatin-D-TAT and Cisplatin on the survival of these cell lines (in vitro cytotoxic activity) were measured by using an MTT assay. 20 μl of a 5 mg/ml solution 0.22 μl filtered tetrazolium reagent (MTT, Ref. M2003, Sigma) in Phosphate Buffered Saline (PBS, Ref BE17-517Q, Cambrex) were aded in each well. Culture plates were incubated for 4 h at 37° C. The resulting supernatant was removed and formazan crystals were dissolved with 200 μl of DMSO per well. Absorbancy (OD) was determined in each well on a single wavelength spectrophotometer plate reader at 570 nm (Multiskan, Labsystem, Helsinki, Finland) Data were collected with Genesis software (Labsystem, Helsinki, Finland). IC50 (concentration of the drug inhibiting 50% of the cell growth) for the test substances was calculated for each cell line after plotting. Control cells were treated with vehicle.
In general terms: Tetrazolium assays rely on reduction of a dye to a coloured formazan, in cell work by metabolically active cells.

The test system of data set [1] is IGROV-1/CDDP (ovary, cisplatin-resistant cell line). Described as above. As to conditions: for IC50: IGROV-1/CDDP cisplatin-resistant cells, MTT, 96 h, mean of four measurements; for resistance index of IGROV-1/CDDP compared to parental IGROV-1 cell line: approximate; for Resistance Index of IGROV-1/CDDP versus IGROV-1 cell line: ratio of IC50 IGROV-1/CDDP to IGROV-1. It counts as cell-based, human. On the procedure:
as §1

A further data set has as its system MCF-7 (breast). Described as above. It counts as cell-based, human. The note with it: MCF-7 cells. On the procedure:
as §1

A further data set concerns MRC-5 (human fibroblast). The description is as above. The data set is classed as cell-based. As to conditions: MRC-5 fibroblast cells. On the procedure:
as §1, with “Culture plates were incubated for 4 h at 37° C. The resulting supernatant was removed and formazan crystals were dissolved with 200 μl of DMSO per well.” left out, “IC50 (concentration of the drug inhibiting 50% of the cell growth) for the test substances was calculated for each cell line after plotting. Control cells were treated with vehicle.” left out

In data set [2] the test system is MCF-7 (human breast adenocarcinoma cell line). The data set is described as follows: MTT cell survival assay, 96 h treatment (Example 2, oxaliplatin conjugates). The note with it: MCF-7 cells, Example 2, triplicate. The data set is classed as cell-based. On the procedure: (§2) Effects of a treatment with increasing concentrations of a conjugate molecule of the invention (D-Tat-oxaliplatin) on the survival of MCF-7 (human breast adenocarcinoma cell line) and SiHa (human cervix squamous carcinoma cell line) was determined. The effects of D-Tat-oxaliplatin was compared to the conjugate L-Tat-oxaliplatin and to two unconjugated anti-cancer drugs (Oxaliplatin and Cisplatin). Cells of each cell line (10′000 cells per well) were plated into 96 well plates (200 μl total volume of MEM supplemented with 10% FBS, 1% L-glutamine, 1% Na-pyruvate, 1% non-essential amino acids for MCF-7 and of MEM/Earle's supplemented with 10% FBS, 1% Na-pyruvate, 1% non-essential amino acids for SiHa cells). 6 to10 different concentrations for each test substance were tested. The control cells are non-treated. Cells were incubated at 37° C. for 24 h before treatment with the test substance. Each experiment was carried in triplicate. Cell incubation after treatment was performed for 96 hours at 37° C. The effects of the test molecules on the survival of these cell lines (in vitro cytotoxic activity) was measured by the MTT assay. 20 μl of a 5 mg/ml 0.22 μm filtered Thiazolyl Blue Tetrazolium Bromide solution (MTT, Sigma, Ref. No. 88415) in Phosphate Buffered saline (PBS, CHUV) were added to each well and the plate was incubated for 4 hours at 37° C. The supernatant was removed and formazan crystals were dissolved with DMSO (200 μl per well). Absorbancy (OD) was measured in a microplate reader at 595 nm (Expert Plus Reader, Asys Hitech). The IC50 (concentration of the drug inhibiting 50% of the cell growth) for the test substances was calculated using Prism software.

For data set [3], the system named is SiHa (human cervix squamous carcinoma cell line). Described as above. As to conditions: SiHa cells, Example 2, triplicate. It counts as cell-based. The method, then:
as §2

For data set [4], the system named is MCF-7 (human breast adenocarcinoma cell line). The data set is described as follows: cells. It counts as cell-based. On the procedure:
(§3) Effects of a treatment with increasing concentrations of a conjugate molecule of the invention (D-Tat-chlorambucil) on the survival of MCF-7 (human breast adenocarcinoma cell line) and SiHa (humon cervix squamous carcinoma cell line) was determined. The effects of D-Tat-chlorambucil was compared to the conjugate L-Tat-chlorambucil and to two unconjugated anti-cancer drugs (Chlorambucil and Cisplatin). Cells of each cell line (10′000 cells per well) were plated into 96 well plates (200 μtotal volume of MEM supplemented with 10% FBS, 1% L-glutamine, 1% Na-pyruvate, 1% non-essential amino acids for MCF-7 and of MEM/Earle's supplemented with 10% FBS, 1% Na-pyruvate, 1% non-essential amino acids for SiHa cells). 6 to 10 different concentrations for each test substance were tested. The control cells are non-treated. Cells were incubated at 37° C. for 24 h before treatment with the test substance. Each experiment was carried in triplicate. Cell incubation after treatment was performed for 96 hours at 37° C. The effects of the test molecules on the survival of these cell lines (in vitro cytotoxic activity) was measured by the MTT assay. 20 μl of a 5 mg/ml 0.22 μm filtered Thiazolyl Blue Tetrazolium Bromide solution (MTT, Sigma, Ref. No. 88415) in Phosphate Buffered saline (PBS, CHUV) were added to each well and the plate was incubated for 4 hours at 37° C. The supernatant was removed and formazan crystals were dissolved with DMSO (200 μl per well). Absorbancy (OD) was measured in a microplate reader at 595 nm
(§4) (Expert Plus Reader, Asys Hitech). The IC50 (concentration of the drug inhibiting 50% of the cell growth) for the test substances was calculated using Prism software.

The subject of data set [5] is SiHa (humon cervix squamous carcinoma cell line). Kind of data set: cells. It counts as cell-based, human. On the procedure: as §3, §4
Data set [6] can be described thus: Octanol/water partition (shake-flask, HPLC at 214 nm), water solubility. The note with it: 1 mM, 24 hours equilibration at room temperature, FIG. 10.

For `N.N.[Cl][Pt][Cl]` [Cisplatin, cis-diamindichloroplatin (II)], the IC50 (in general, the midpoint of a concentration-inhibition curve) in the data set on IGROV-1 (ovary) was found to be 1.2 µM; in data set [1], 52.3 µM; in the data set on MCF-7 (breast), 2.68 µM; in the data set with MRC-5 (human fibroblast), 4.88 µM; in [2] it was 9.1 µM; in data set [3] it was 11.1 µM. In addition, the IC50 in [4] (MCF-7 cells, MTT, 96 h, Example 3, triplicate, read-out: IC50) is 7 µM and 7.96 µM; in data set [5] (SiHa cells, MTT, 96 h, Example 3, triplicate, read-out: IC50) it was 7 µM and 7.03 µM. For the same molecule, the “resistance index of IGROV-1/CDDP compared to parental IGROV-1 cell line” value in data set [1] is given as “approximately 40 fold”. In data set [1], the “Resistance Index of IGROV-1/CDDP versus IGROV-1 cell line” value is reported as 43.6.
Regarding `O=C(O)CCCc1ccc(N(CCCl)CCCl)cc1` [chlorambucil], the 50% inhibitory concentration (IC50) is greater than 1000 µM in [4] (Homo sapiens, MCF7); greater than 1000 µM in data set [4] (Homo sapiens, MCF7, 96 h); greater than 1000 µM in data set [5] (Homo sapiens, SiHa); greater than 1000 µM in data set [5] (Homo sapiens, SiHa, 96 h). The “water solubility (compound partitioned in water, octanol/water)” value in [6] is listed as “very low water solubility”.
On to `COc1cccc2c1C(=O)c1c(O)c3c(c(O)c1C2=O)C[C@@](O)(C(=O)CO)C[C@@H]3O[C@H]1C[C@H](N)[C@H](O)[C@H](C)O1` [doxorubicine], for which the “water solubility (compound partitioned in water, octanol/water)” value in data set [6] is recorded as “almost perfectly soluble in water”.
With `O=C(O)C(=O)O.[NH-][C@@H]1CCCC[C@H]1[NH-].[Pt+2]` [oxaliplatin], the half-inhibitory concentration (IC50) came out at 1.5 µM in [2] and 11.1 µM in data set [3].
With `CC(C)(C)NC(=O)[C@@H]1C[C@@H]2CCCC[C@@H]2CN1C[C@@H](O)[C@H](Cc1ccccc1)NC(=O)[C@H](CC(N)=O)NC(=O)c1ccc2ccccc2n1` [saquinavir], the “water solubility (compound partitioned in water, octanol/water)” value in data set [6] was “only partially soluble in water”.
As for “Cisplatin-D-TAT (H-[dM]GG[dR][dR][dR][dQ][dR][dR][dK][dK][dR]-NH2; also: cisplatin conjugate)”, the IC50 was 18.4 µM with IGROV-1 (ovary), 35.3 µM in data set [1], 4.89 µM in the data set on MCF-7 (breast) and 20.6 µM in the data set on MRC-5 (human fibroblast). The “resistance index of IGROV-1/CDDP compared to parental IGROV-1 cell line” value in [1] is reported as “approximately two”. In addition, in data set [1], the “Resistance Index of IGROV-1/CDDP versus IGROV-1 cell line” value is given as 1.9.
